Test results: US9243037B2, “Gramicidin a mutants that function as antibiotics with improved solubility and reduced toxicity” (Trustees of Boston College, priority 2011, dated 2016)
In brackets after ≈: the same amount, converted by molar mass. Entries after “also recorded” stand apart in the source; their conditions may differ.

Key:
[1] = Peptide distribution in EYPC LUVs by Trp fluorescence; assay type: binding; conditions: peptide added to LUVs; in words
Method: The peptides distribution was determined by monitoring Trp fluorescence and the channel activity was determined by monitoring the proton leakage from LUVs using a pH sensitive fluorescence dye HPTS. […]

[2] = Peptide binding onto membranes (Trp fluorescence); conditions: negatively charged POPC/POPG vesicles; in words
[3] = test system: MCF-7; experiment: MTT toxicity assay; assay type: cell-based, human
Method: (§1) Toxicity of gA-WT and gA-5 was tested against two human cancer cell lines, HeLa and MCF-7 (gifts from Professor Eranthie Weerapana at Boston College) by using the MTT assay as described in the protocol provided by Invitrogen.[5] HeLa cells (in DMEM high glucose media with 10% FBS, 1% Pen/Strep, 37° C., 5% CO2) and MCF-7 cells (in RPMI media with 10% FBS and 1% Pen/Strep, 37° C., 5% CO2) were grown to about 80% confluent before removed from the surface of a 20 cm petri-dish with […] with EDTA (3-5 mins, 37° C., 5% CO2). Cells were pelleted (3,500 rpm, 5 mins at 4° C.), and plated at 15,000 cells per well (100 μL per well), then incubated for 48 hrs before peptide addition.
(§2) Stock solutions of gA in DMSO with varied concentrations were prepared so that for each peptide concentration the total volume of DMSO addition was kept constant at 1% (v/v). For each peptide concentration, samples were set up as four replicates. Control wells were loaded with 1 μL of DMSO. After overnight incubation, cells were washed once with PBS before being incubated for 4 hrs with 110 μL of 12 mM 3-(4,5-Dimethylthiazol-2-yl)-2,5-diphenyltetrazolium bromide (MTT) dissolved in RPMI media. The MTT assay was quenched with 100 μL of 10% SDS in 0.01 M HCl and allowed to incubate overnight before absorbance at 570 nm was recorded. Wells were averaged and standard deviations determined for each peptide concentration. Data were normalized to the DMSO control to give % cell survival (see FIG. 3).

[4] = test system: HeLa; experiment: MTT toxicity assay; assay type: cell-based, human
Method: as §1, §2

[5] = test system: Bacillus subtilis (ATCC 663)
[6] = physchem; assay type: physicochemical
In short: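 Peptide DMSO stock (6.0-8.0 mM) diluted 100-fold into 10 mM HEPES, pH 7.0, giving 1% DMSO; sonicated 30 min, centrifuged 14,000 rpm for 10 min. Supernatant concentration determined from tryptophan absorbance at 280 nm (ε=22760 M−1 cm-1).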

[7] = K+ release from liposomes, lipid not specified; assay type: biochemical; conditions: in words
Method: With the D-Lys residues incorporated towards the C-terminus, the gA peptide analogs described herein display amphipathic sequences. Since many amphipathic peptides are known to cause membrane damage through a detergent-like mechanism instead of forming specific channels,[19] it was further examined whether it is the case with the gA peptide analogs provided herein. Toward this end, the ion selectivity of gA-3, 4, and 5 was assessed by using liposomes encapsulating K+ and Tb3+ respectively. […] The wild type like channel structure of the D-Lys mutants is further supported by the fact that gA-5 and gA-WT share similar signatures in their circular dichroism spectra (FIG. 11). This exclusive leakage of monovalent cations presents a great advantage of the gA analog peptides described herein in comparison to the majority of AMPs, which often cause catastrophic membrane collapse to release all bacterial cellular content, leading to potential complications of over-stimulated immune response.
The K+ leakage from liposomes was determined by a potassium ion selective electrode (K-ISE, Cole-Parmer, Vernon Hills, Ill.). The electrode was calibrated each day before experiments. A liposome solution in Buffer A (2 mL, 500 μM POPC or POPC/POPG⊃10 mM HEPES, 150 mM KCl, pH 7.0) was stirred at constant speed and peptide at various concentration (1 μL in DMSO) was added accumulatively. Three minutes after each peptide addition, the K+ concentration was measured and reported as the K-ISE potential. At the end of each experiment, gA-WT stock (1 μL, 1 mM) was added to induce 100% K+ leakage. The potential reported by the K-ISE was plotted against peptide concentration after the background noise (caused by DMSO addition) was subtracted and normalized to 0-100%.

[8] = Peptide binding onto membranes (Trp fluorescence); conditions: neutral POPC vesicles; in words
[9] = K+ leakage from liposomes; assay type: biochemical; conditions: FIG. 4B; in words
Method: A chloroform solution containing 76 mg of POPC (for POPC LUVs) or a chloroform/meol (1/1) containing 38 mg of POPC and 38.5 mg POPG sodium salt (for POPC/POPG LUVs, POPC:POPG=1:1) was dried under reduced pressure to form a thin film, which was then […] with 2 mL aqueous buffer: (1) 10 mM HEPES, 150 mM KCl, pH 7.0 for K+ leakage assay; (2) 10 mM TES, 100 mM sodium citrate, 50 mM TbCl3, pH 7.0 for Tb3+ leakage assay; (3) 10 mM HEPES, 150 mM NaCl, pH 7.0 for peptide binding assay. After 20 cycles of freezing and thawing, the liposome suspension was extruded 21 times through a 100 nm polycarbonate membrane (LIPOSOFAST Mini Extrusion system, Avanti Polar Lipids; Whatman Nuclepore Track-Etch Membrane) at RT. Free K+ or Tb3+ were removed by gel filtration (ÄKTA FPLC with HIPREP™ 16/60 Sephacryl TM-S-500HR column) using Buffer A for (1) and (3) or Buffer B for (2) as the eluents. The lipid concentration was determined by the Stewart assay and the size of liposome was confirmed by Dynamic Light Scattering (DLS, DYNAPRO NANOSTAR, Wyatt, Santa Barbara, Calif.). After gel filtration the polydispersity of all liposome are below 20%.
The K+ leakage from liposomes was determined by a potassium ion selective electrode (K-ISE, Cole-Parmer, Vernon Hills, Ill.). […] Three minutes after each peptide addition, the K+ concentration was measured and reported as the K-ISE potential. […]

[10] = Trp absorbance @ 280 nm; 10 mM PBS, pH 7.0, 1% DMSO; values taken from ref; cited from earlier work
[11] = test system: Streptococcus pyogenes (ATCC 19615)

With `CC(C)C[C@@H](NC(=O)[C@H](C)NC(=O)CNC(=O)[C@@H](NC=O)C(C)C)C(=O)N[C@@H](C)C(=O)N[C@@H](C(=O)N[C@H](C(=O)N[C@@H](C(=O)N[C@@H](Cc1c[nH]c2ccccc12)C(=O)N[C@H](CCCCN)C(=O)N[C@@H](Cc1c[nH]c2ccccc12)C(=O)N[C@H](CCCCN)C(=O)N[C@@H](Cc1c[nH]c2ccccc12)C(=O)N[C@H](CCCCN)C(=O)N[C@@H](Cc1c[nH]c2ccccc12)C(=O)NCCO)C(C)C)C(C)C)C(C)C` (racemic) [gA-5, formyl-V-G-A-dL-A-dV-V-dV-W-dK-W-dK-W-dK-W-NHCH2CH2OH] the “binding to EYPC LUVs” value [1] was “neither peptides bound to EYPC LUVs upon addition”, the “apparent dissociation constant (Kd) / binding” value [2] was “dropped by a marginal four fold” and the “toxicity, cell survival (MTT)” value [3] was “essentially unaffected”. For the same compound, the “toxicity, cell survival (MTT)” value [4] was “essentially unaffected”, the “MICs B. Subtilius” value ([5]; ATCC 663) was 5 µM and the “MIC relative to wild-type Gramicidin A” value ([5]; B. subtilis) was “equivalent to or ˜2-fold higher”. The antibacterial activity ([5]; B. subtilis, in words) was “highly potent”, the “solubility compared with the wild type” value [6] was “three orders of magnitude” and the “water solubility, fold higher than wild-type Gramicidin A” value [6] was about 1500 fold. For the same compound, the solubility at 30 mins ([6]; pH 7) was about 100 µM (≈ 193 µg/mL), the “K+ release from LUVs” value [7] was “potent activity in K+ release; also recorded: complete K^+ leakage” and the “apparent dissociation constant (Kd) / binding” value [8] was “no detectable binding”. For the same compound, the “K+ leakage from negatively charged liposomes” value [9] was “lack of K+ leakage”, the “Sat. Conc, Lys series” value [10] was 72 µM and the “MICs S. Pyogenes” value ([11]; ATCC 19615) was 0.62 µM. For the same compound, the “MIC relative to wild-type Gramicidin A” value ([11]; S. Pyogenes) was “equivalent to or ˜2-fold higher” and the antibacterial activity ([11]; S. pyogenes, in words) was “highly potent”.
